Laboratory results: ChEMBL document CHEMBL4725403, “Improved design of peptides exhibiting angiogenic activities for clinical applications” (Bioorg Med Chem, 2020)
Calls of active or inactive are those of the source. No cut-off for these calls is given here. Where a SMILES comes first, the peptide text is derived from it. Bridges are numbered along the chain shown (N, C = ends). [ ]: non-standard residue; d: D form. AEEA = NCCOCCOCC(=O)O

Tests used:
[1] = Stability of compound in HUVEC cell lysates assessed as parent compound remaining after 6 hrs by HPLC-MS; format: ADME, subcellular; conditions: human; for Stabilty: huvec, 6 h
HUVEC [2] = test: Induction of angiogenesis in HUVEC assessed as tube formation at 2 ug/ml after 2 hrs by inverted microscopy; format: functional; conditions: Homo sapiens, dose 2.0 µg/ml
HUVEC [3] = test: Induction of angiogenesis in HUVEC assessed as tube formation at 2 ug/ml after 18 hrs by inverted microscopy; format: functional; conditions: Homo sapiens, dose 2.0 µg/ml
[4] = Stability of compound in human serum assessed as parent compound remaining after 6 hrs by HPLC-MS; format: ADME, cell-free; conditions: for Stabilty: 6 h
HUVEC [5] = test: Induction of angiogenesis in HUVEC assessed as tube formation at 2 ug/ml upto 24 hrs by inverted microscopy; format: functional; conditions: Homo sapiens, dose 2.0 µg/ml

Compound	remaining at 6 h ([1]; HUVEC cell lysates, read-out: Stabilty)	Activity (HUVEC [2])	Activity (HUVEC [3])	Stabilty [4]	Stabilty [1]	remaining at 6 h ([4]; read-out: Stabilty)	Activity (HUVEC [5])
H-SVVFGLR-NH2	50%	Active	Active	Unstable	–	–	–
CC(C)C[C@@H]1NC(=O)CNC(=O)[C@H](Cc2ccccc2)NC(=O)[C@H](C(C)C)NC(=O)[C@H](C(C)C)NC(=O)[C@H](CO)NC(=O)COCCOCCNC(=O)CC[C@@H](C(N)=O)NC(=O)[C@H](CCCNC(=N)N)NC1=O ([AEEA]SVVFGLRE-NH2; lactam N-9)	–	Active	Active	–	Unstable	80%	–
CC(C)C[C@@H]1NC(=O)CNC(=O)[C@H](Cc2ccccc2)NC(=O)[C@H](C(C)C)NC(=O)[C@H](C(C)C)NC(=O)[C@H](CO)NC(=O)COCCOCCNC(=O)[C@@H](N)CSSC[C@@H](C(N)=O)NC(=O)CNC(=O)[C@H](CCCNC(=N)N)NC1=O	–	Active	Active	Stable	Stable	–	Active
CC(C)C[C@H](NC(=O)CNC(=O)[C@H](Cc1ccccc1)NC(=O)[C@@H](NC(=O)[C@@H](NC(=O)[C@H](CO)NC(=O)COCCOCCN)C(C)C)C(C)C)C(=O)N[C@@H](CCCNC(=N)N)C(N)=O (H-[AEEA]SVVFGLR-NH2)	–	–	–	–	Stable	–	–
CC(C)C[C@@H]1NC(=O)CNC(=O)[C@H](Cc2ccccc2)NC(=O)[C@H](C(C)C)NC(=O)[C@H](C(C)C)NC(=O)[C@H](CO)NC(=O)COCCOCCNC(=O)[C@H](N)CSSC[C@H](C(N)=O)NC(=O)CNC(=O)[C@H](CCCNC(=N)N)NC1=O	–	Active	Active	Stable	Stable	–	–
